“And” between values parts separate entries of the source, which are not always exact repeats. Equal entries are not always repeated. Where two headings read alike, the source gives them in different places.
Columns and labels:
[1] = target: almond β-glucosidase (EC 3.2.1.21); assay: Almond β-glucosidase inhibition, p-nitrophenyl β-D-glucopyranoside substrate, 96-well plate; assay type: biochemical; details: β-Glucosidase from almonds; NI: no inhibition
Procedure: To broaden the scope of the analysis, β-glucosidase (almond) activity of the same set of compounds was conducted using the corresponding p-nitrophenyl β-D-glucopyranoside.
(§1) Biological assays: Yeast α-glucosidase (EC 3.2.1.20) and almond β-glucosidase (EC 3.2.1.21) activity was assessed using a 96-well plate assay. Assays contained 20 mM NaOAc at pH 6.8 (α-glucosidase) and pH 6.2 (β-glucosidase), 10 mM PIPES (piperazine-N,N′-bis(2-ethanesulfonic acid), 0.1 mM EDTA, α-glucosidase (5 μg/mL), β-glucosidase (6 μg/mL), and inhibitor (0.1–2 mM). Enzyme and inhibitor were equilibrated at 37 °C for 30 min. The reaction was initiated by the addition of p-nitrophenyl α-D-glucopyranoside (200 μM) or p-nitrophenyl β-D-glucopyranoside (200 μM), and then it was quenched with 100 μL of sodium carbonate 3.0 M after 25 min incubation at 37 °C. Assays were repeated in duplicate and data averaged.

[2] = target: T1, α-glucosidase (from Saccharomyces cerevisiae) (Saccharomyces cerevisiae, UniProt P53341); assay: Yeast α-glucosidase inhibition, p-nitrophenyl α-D-glucopyranoside substrate, 96-well plate; assay type: biochemical; details: tested concentration 15–2000 µM
T1 sequence (P53341 whole entry): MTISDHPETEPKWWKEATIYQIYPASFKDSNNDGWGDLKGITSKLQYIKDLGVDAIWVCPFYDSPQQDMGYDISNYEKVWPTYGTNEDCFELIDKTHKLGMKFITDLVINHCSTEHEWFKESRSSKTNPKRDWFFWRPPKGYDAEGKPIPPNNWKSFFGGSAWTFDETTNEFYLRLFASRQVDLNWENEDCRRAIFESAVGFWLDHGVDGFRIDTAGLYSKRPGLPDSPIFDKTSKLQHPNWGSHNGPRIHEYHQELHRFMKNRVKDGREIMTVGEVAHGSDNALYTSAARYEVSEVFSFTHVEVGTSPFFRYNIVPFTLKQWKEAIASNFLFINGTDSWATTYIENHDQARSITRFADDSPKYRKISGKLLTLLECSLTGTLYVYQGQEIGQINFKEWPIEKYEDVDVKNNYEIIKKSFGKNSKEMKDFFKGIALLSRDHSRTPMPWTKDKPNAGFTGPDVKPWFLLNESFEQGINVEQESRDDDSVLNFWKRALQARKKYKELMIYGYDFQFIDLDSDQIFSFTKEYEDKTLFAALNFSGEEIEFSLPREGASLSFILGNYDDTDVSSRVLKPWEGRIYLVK

[3] = target: T1, α-glucosidase (from Saccharomyces cerevisiae); assay: as above; assay type: biochemical
Procedure: as §1

yeast α-glucosidase = details: at 1 mM; cited from earlier work
[4] = test system: Bacillus stearothermophilus α-glucosidase; parameters: method as in PMID 9113331; details: cited from earlier work; for % α-glucosidase inhibition: tested at 1 mM in Bacillus stearothermophilus
β-glucosidase = details: cited from earlier work; for % β-glucosidase inhibition: at 1 mM
[5] = NI: no inhibition, read-out: Inhibition (µM) α-Glucosidase (IC50)
[6] = read-out: Inhibition (µM) α-Glucosidase (IC50), NI: no inhibition

Compound | IC50 [1] | IC50 [3, 5] | other results
CCCCN1C[C@@H](O)[C@@H](O)[C@H](O)[C@H](O)C1 [27b, N-Butyl-1,6-dideoxy-1,6-imino-D-mannitol] | 184 µM and 185 µM | – | –
C#CCN1C[C@H](O)[C@@H](O)[C@H](O)[C@H]1CO [39a, N-Propynyl-1,5-dideoxy-1,5-imino-D-glucitol] | 636 ± 8.5 µM | > 2000 µM | yeast α-glucosidase inhibition (in words) [2]: weak or no α-glucosidase inhibition
OCCN1C[C@H](O)[C@@H](O)[C@H](O)[C@H]1CO [41a, N-Hydroxyethyl-1,5-dideoxy-1,5-imino-D-glucitol, reference compound] | 4 ± 1.5 µM | – | IC50 ([3]; Inhibition (µM) α-Glucosidase (IC50), NI: no inhibition): 41 µM and 41.3 µM
CCCCN1C[C@@H](O)[C@@H](O)[C@H](O)[C@@H]1CO [27a, N-Butyl-1,5-dideoxy-1,5-imino-L-gulitol] | – | – | IC50 [3, 6]: > 2000 µM
OCCN1C[C@@H](O)[C@@H](O)[C@H](O)[C@@H]1CO [28a, N-Hydroxyethyl-1,5-dideoxy-1,5-imino-L-gulitol] | > 2000 µM | – | IC50 [3, 6]: > 2000 µM
O[C@H]1[C@H](O)[C@H](O)CN(CCc2ccccc2)C[C@H]1O [29b, N-Phenethyl-1,6-dideoxy-1,6-imino-D-mannitol] | > 2000 µM | > 2000 µM | –
CCCCN1C[C@H](O)[C@@H](O)[C@H](O)[C@@H](O)C1 [40b, N-Butyl-1,6-dideoxy-1,6-imino-L-iditol] | 80 ± 4.9 µM | > 2000 µM | yeast α-glucosidase inhibition (in words) [2]: weak or no α-glucosidase inhibition; % inhibition, α-glucosidase (yeast α-glucosidase): 14%
C#CCN1C[C@@H](O)[C@@H](O)[C@H](O)[C@H](O)C1 [26b, N-Propynyl-1,6-dideoxy-1,6-imino-D-mannitol] | > 2000 µM | > 2000 µM | –
OC[C@H]1[C@@H](O)[C@H](O)[C@H](O)CN1CCc1ccccc1 [29a, N-Phenethyl-1,5-dideoxy-1,5-imino-L-gulitol] | > 2000 µM | > 2000 µM | –
OC[C@@H]1NC[C@@H](O)[C@@H](O)[C@@H]1O [nonsubstituted L-gulo-piperidine, 1-deoxy-L-gulo-nojirimycin] | – | – | % α-glucosidase inhibition [4]: 30%; % β-glucosidase inhibition (β-glucosidase): […]
CCCCN1C[C@H](O)[C@@H](O)[C@H](O)[C@H]1CO [40a, N-Butyl-1,5-dideoxy-1,5-imino-D-glucitol, reference compound] | – | – | yeast α-glucosidase inhibition (in words) [2]: weak or no α-glucosidase inhibition; IC50 [3, 6]: > 2000 µM
C#CCN1C[C@@H](O)[C@@H](O)[C@H](O)[C@@H]1CO [26a, N-Propynyl-1,5-dideoxy-1,5-imino-L-gulitol] | 1716 ± 12.8 µM | > 2000 µM | –
OCCN1C[C@@H](O)[C@@H](O)[C@H](O)[C@H](O)C1 [28b, N-Hydroxyethyl-1,6-imino-D-mannitol] | > 2000 µM | > 2000 µM | –
OC[C@H]1NC[C@H](O)[C@@H](O)[C@@H]1O [DNJ, 1-deoxynojirimycin, reference compound] | 33 µM and 33.1 µM | – | Ki ([4]; Bacillus stearothermophilus α-glucosidase): 0.44 µM; Ki (β-glucosidase): […]
OCCN1C[C@H](O)[C@@H](O)[C@H](O)[C@@H](O)C1 [41b, N-Hydroxyethyl-1,6-dideoxy-1,6-imino-L-iditol] | 4 ± 1.4 µM | 138 µM and 139 µM | –
C#CCN1C[C@H](O)[C@@H](O)[C@H](O)[C@@H](O)C1 [39b, N-Propynyl-1,6-dideoxy-1,6-imino-L-iditol] | 3440 ± 70.6 µM | > 2000 µM | yeast α-glucosidase inhibition (in words) [2]: weak or no α-glucosidase inhibition
O[C@H]1[C@H](O)[C@H](O)CNC[C@H]1O [D-manno-azepane, 1,6-dideoxy-1,6-imino-D-mannitol] | – | – | % α-glucosidase inhibition [4]: 55%; % β-glucosidase inhibition (β-glucosidase): 1%
